Results: ChEMBL document CHEMBL1782045, “Discovery, synthesis, and investigation of the antitumor activity of novel piperazinylpyrimidine derivatives” (Eur J Med Chem, 2011)
pIC50, pKd: −log10 of the molar value.

What was measured:
[1] = target: Platelet-derived growth factor receptor alpha (Homo sapiens) (UniProt P16234); test: Binding affinity to human PDGFRA at 10 uM incubated for 1 hr by kinase binding assay relative to untreated control
NCI-H23 = test: Growth inhibition of human NCI-H23 cells after 48 hrs by sulforhodamine B assay; type: functional; conditions: NCI-H23, 48 h
UACC-257 = test: Growth inhibition of human UACC257 cells after 48 hrs by sulforhodamine B assay; type: functional; conditions: UACC-257, 48 h
MDA-MB-468 = test: Growth inhibition of human MDA-MB-468 cells after 48 hrs by sulforhodamine B assay; type: functional; conditions: MDA-MB-468, 48 h
[2] = test system: Mast/stem cell growth factor receptor Kit (Homo sapiens), P10721 [L576P]; test: Binding affinity to human KIT L576P mutant at 10 uM incubated for 1 hr by kinase binding assay relative to untreated control
[3] = target: Mast/stem cell growth factor receptor Kit (Homo sapiens) (UniProt P10721); test: Inhibition of human KIT using gamma-33P-ATP as substrate assessed as enzyme functional activity at 1 uM by scintillation counting relative to untreated control; design: scale not given: the % may be the effect or the level left
[4] = test system: Mast/stem cell growth factor receptor Kit (Homo sapiens), P10721 [V559D]; test: Binding affinity to human KIT V559D mutant at 10 uM incubated for 1 hr by kinase binding assay relative to untreated control
EKVX = test: Growth inhibition of human EKVX cells after 48 hrs by sulforhodamine B assay; type: functional
RPMI-8226 = test: Growth inhibition of human RPMI8226 cells after 48 hrs by sulforhodamine B assay; type: functional; conditions: RPMI-8226, 48 h
[5] = target: Mast/stem cell growth factor receptor Kit (Homo sapiens) (UniProt P10721); test: Binding affinity to human KIT at 10 uM incubated for 1 hr by kinase binding assay relative to untreated control
[6] = test system: Mast/stem cell growth factor receptor Kit (Homo sapiens), P10721 [V560G]; test: Inhibition of human KIT V560G using gamma-33P-ATP as substrate assessed as enzyme functional activity at 1 uM by scintillation counting relative to untreated control; design: scale not given: the % may be the effect or the level left
HCC 2998 = test: Growth inhibition of human HCC2998 cells after 48 hrs by sulforhodamine B assay; type: functional; conditions: HCC 2998, 48 h
UO-31 = test: Growth inhibition of human UO31 cells after 48 hrs by sulforhodamine B assay; type: functional; conditions: UO-31, 48 h
PC-3 = test: Growth inhibition of human PC3 cells after 48 hrs by sulforhodamine B assay; type: functional; conditions: PC-3, 48 h
CCRF-CEM [7] = test: Growth inhibition of human CCRF-CEM cells after 48 hrs by sulforhodamine B assay; type: functional
CCRF-CEM [8] = test: Cytotoxicity against human CCRF-CEM cells after 48 hrs by sulforhodamine B assay; type: cell-based
CAKI-1 = test: Growth inhibition of human Caki1 cells after 48 hrs by sulforhodamine B assay; type: functional; conditions: CAKI-1, 48 h
OVCAR-4 = test: Growth inhibition of human OVCAR4 cells after 48 hrs by sulforhodamine B assay; type: functional; conditions: OVCAR-4, 48 h
SF-295 = test: Growth inhibition of human SF295 cells after 48 hrs by sulforhodamine B assay; type: functional; conditions: SF-295, 48 h
IGROV-1 = test: Growth inhibition of human IGROV1 cells after 48 hrs by sulforhodamine B assay; type: functional; conditions: IGROV-1, 48 h
HOP-92 = test: Growth inhibition of human HOP92 cells after 48 hrs by sulforhodamine B assay; type: functional; conditions: HOP-92, 48 h
MCF7 = test: Growth inhibition of human MCF7 cells after 48 hrs by sulforhodamine B assay; type: functional; conditions: MCF7, 48 h
Malme-3M = test: Growth inhibition of human MALME-3M cells after 48 hrs by sulforhodamine B assay; type: functional
[9] = target: T1, Receptor-type tyrosine-protein kinase FLT3 (Homo sapiens, UniProt P36888); test: Binding affinity to human FLT3 incubated for 1 hr by kinase binding assay
MOLT-4 = test: Growth inhibition of human MOLT4 cells after 48 hrs by sulforhodamine B assay; type: functional; conditions: MOLT-4, 48 h
[10] = target: T1, Receptor-type tyrosine-protein kinase FLT3; test: Inhibition of human FLT3 using gamma-33P-ATP as substrate by scintillation counting

Mast/stem cell growth factor receptor Kit (Homo sapiens), sequence (P10721 whole entry): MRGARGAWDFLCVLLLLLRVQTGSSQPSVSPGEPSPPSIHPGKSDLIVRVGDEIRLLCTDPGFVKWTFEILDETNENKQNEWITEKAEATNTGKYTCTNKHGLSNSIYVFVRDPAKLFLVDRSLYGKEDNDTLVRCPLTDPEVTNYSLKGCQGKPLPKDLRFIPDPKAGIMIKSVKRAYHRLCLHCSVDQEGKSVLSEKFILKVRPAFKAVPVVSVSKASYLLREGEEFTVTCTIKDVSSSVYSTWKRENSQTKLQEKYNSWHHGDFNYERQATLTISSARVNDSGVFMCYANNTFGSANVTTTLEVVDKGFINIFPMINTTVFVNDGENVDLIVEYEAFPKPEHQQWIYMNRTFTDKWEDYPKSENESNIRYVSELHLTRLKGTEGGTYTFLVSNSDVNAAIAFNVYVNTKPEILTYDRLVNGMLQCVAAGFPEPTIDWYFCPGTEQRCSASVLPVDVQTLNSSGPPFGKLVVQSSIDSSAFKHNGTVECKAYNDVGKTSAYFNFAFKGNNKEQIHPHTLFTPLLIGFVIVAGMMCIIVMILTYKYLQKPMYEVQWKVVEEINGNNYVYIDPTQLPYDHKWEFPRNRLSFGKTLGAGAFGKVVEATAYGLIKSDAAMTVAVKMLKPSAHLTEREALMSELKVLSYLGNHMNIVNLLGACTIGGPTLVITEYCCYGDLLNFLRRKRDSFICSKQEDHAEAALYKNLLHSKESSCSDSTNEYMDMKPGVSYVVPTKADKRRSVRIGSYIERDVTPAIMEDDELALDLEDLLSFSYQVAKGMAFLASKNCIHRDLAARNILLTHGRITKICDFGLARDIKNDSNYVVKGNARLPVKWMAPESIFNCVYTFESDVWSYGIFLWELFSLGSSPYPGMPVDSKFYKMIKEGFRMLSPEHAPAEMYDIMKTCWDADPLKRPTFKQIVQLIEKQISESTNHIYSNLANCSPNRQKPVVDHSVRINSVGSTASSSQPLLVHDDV
Platelet-derived growth factor receptor alpha (Homo sapiens), sequence (P16234 whole entry): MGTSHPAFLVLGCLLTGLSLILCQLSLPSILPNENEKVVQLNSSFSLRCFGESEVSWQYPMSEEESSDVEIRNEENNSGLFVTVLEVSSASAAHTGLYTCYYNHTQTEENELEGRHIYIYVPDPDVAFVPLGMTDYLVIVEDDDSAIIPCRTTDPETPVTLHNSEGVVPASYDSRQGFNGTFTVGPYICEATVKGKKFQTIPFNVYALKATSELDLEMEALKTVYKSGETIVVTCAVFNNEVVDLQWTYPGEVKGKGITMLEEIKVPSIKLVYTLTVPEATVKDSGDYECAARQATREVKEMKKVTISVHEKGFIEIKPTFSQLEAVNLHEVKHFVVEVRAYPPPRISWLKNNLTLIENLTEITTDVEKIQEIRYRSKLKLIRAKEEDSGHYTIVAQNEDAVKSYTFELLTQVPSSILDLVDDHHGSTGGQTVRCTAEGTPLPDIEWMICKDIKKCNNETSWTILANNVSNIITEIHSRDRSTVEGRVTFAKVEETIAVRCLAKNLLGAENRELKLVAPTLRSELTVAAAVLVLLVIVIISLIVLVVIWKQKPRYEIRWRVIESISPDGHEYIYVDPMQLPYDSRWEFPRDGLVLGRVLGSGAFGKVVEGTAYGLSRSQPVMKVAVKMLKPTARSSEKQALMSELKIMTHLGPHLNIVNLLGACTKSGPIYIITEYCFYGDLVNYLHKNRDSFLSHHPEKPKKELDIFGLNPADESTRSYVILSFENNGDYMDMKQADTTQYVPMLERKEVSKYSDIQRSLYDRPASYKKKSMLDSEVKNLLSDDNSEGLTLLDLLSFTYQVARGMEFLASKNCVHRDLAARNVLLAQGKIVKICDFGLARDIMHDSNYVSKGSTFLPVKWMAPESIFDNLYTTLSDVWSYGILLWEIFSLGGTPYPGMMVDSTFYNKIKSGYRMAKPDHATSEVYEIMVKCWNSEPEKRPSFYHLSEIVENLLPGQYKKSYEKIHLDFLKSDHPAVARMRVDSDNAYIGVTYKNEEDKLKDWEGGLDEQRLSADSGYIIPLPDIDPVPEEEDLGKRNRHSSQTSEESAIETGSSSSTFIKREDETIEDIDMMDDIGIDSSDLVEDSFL
Mast/stem cell growth factor receptor Kit (Homo sapiens), P10721 [L576P], sequence (P10721 whole entry L576P): as the sequence (P10721 whole entry) above, with L576P counted along it
T1 sequence (P36888 whole entry): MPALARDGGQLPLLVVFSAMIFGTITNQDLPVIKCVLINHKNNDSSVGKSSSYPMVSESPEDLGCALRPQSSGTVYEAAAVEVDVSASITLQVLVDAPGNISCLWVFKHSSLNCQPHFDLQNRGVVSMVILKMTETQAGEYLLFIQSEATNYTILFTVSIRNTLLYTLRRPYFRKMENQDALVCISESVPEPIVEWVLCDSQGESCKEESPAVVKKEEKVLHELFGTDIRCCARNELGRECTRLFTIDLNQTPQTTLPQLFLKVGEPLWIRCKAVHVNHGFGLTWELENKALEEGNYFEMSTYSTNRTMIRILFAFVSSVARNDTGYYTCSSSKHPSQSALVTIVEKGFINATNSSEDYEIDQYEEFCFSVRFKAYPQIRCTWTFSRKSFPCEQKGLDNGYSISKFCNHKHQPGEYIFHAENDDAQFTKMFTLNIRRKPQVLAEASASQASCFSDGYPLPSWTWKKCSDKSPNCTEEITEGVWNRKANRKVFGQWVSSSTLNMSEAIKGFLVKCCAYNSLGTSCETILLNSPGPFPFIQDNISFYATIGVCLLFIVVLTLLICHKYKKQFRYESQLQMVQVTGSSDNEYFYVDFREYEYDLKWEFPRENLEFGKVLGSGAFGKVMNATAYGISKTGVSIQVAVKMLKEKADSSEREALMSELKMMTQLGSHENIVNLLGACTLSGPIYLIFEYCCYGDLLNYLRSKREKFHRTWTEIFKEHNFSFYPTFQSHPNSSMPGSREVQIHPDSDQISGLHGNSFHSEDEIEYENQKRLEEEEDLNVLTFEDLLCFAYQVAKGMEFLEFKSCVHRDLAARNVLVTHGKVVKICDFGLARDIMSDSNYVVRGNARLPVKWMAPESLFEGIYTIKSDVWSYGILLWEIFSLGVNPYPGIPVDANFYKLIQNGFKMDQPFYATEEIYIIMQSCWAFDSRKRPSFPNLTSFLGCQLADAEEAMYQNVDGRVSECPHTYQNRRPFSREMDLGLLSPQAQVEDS
Mast/stem cell growth factor receptor Kit (Homo sapiens), P10721 [V560G], sequence (P10721 whole entry V560G): as the sequence (P10721 whole entry) above, with V560G counted along it
Mast/stem cell growth factor receptor Kit (Homo sapiens), P10721 [V559D], sequence (P10721 whole entry V559D): as the sequence (P10721 whole entry) above, with V559D counted along it

O=C(c1cccc(Nc2ncnc3ccccc23)c1)N1CCN(c2ncc(Cc3ccccc3)cn2)CC1
Activity [1]: > 50% | TGI (NCI-H23): 2.69 µM | TGI (UACC-257): 2.63 µM | TGI (MDA-MB-468): 3.47 µM | Activity [2]: > 50% | Activity [3]: 100% | Activity [4]: > 50% | TGI (EKVX): 4.9 µM | TGI (RPMI-8226): 0.6 µM | Activity [5]: > 50% | Activity [6]: 86% | TGI (HCC 2998): 3.98 µM

CCc1cnc(N2CCN(C(=O)c3ccc(CNc4ncnc5ccccc45)cc3)CC2)nc1
Activity [1]: > 50% | TGI (UACC-257): 26.8 µM | TGI (UO-31): 60.5 µM | Activity [2]: > 50% | TGI (PC-3): > 100 µM | GI50 (CCRF-CEM [7]): 10 µM | TGI (CCRF-CEM [7]): 60.9 µM | LC50 (CCRF-CEM [8]): > 100 µM | TGI (CAKI-1): 94.8 µM | Activity [3]: 100% | Activity [4]: > 50% | TGI (OVCAR-4): 58.8 µM | TGI (SF-295): 23.1 µM | TGI (IGROV-1): 49.8 µM | TGI (HOP-92): 80.1 µM | TGI (MCF7): 72.8 µM | Activity [5]: > 50% | Activity [6]: 99% | TGI (Malme-3M): 42.2 µM

c1ccc(Cc2cnc(N3CCN(c4ncnc5ccccc45)CC3)nc2)cc1
pKd [9]: 6.34 | TGI (NCI-H23): 30.8 µM | TGI (UO-31): 38.4 µM | TGI (PC-3): > 100 µM | TGI (CCRF-CEM [7]): 64.4 µM | LC50 (CCRF-CEM [8]): > 100 µM | TGI (CAKI-1): 39.3 µM | TGI (MOLT-4): 40.6 µM | TGI (IGROV-1): 63.3 µM | TGI (EKVX): 33.1 µM | TGI (RPMI-8226): 21.8 µM | pIC50 [10]: 5.17 | TGI (HOP-92): 24.2 µM | TGI (MCF7): 58.2 µM | TGI (Malme-3M): 33.6 µM | TGI (HCC 2998): 60.9 µM
